The term IC50 denotes the concentration needed to halve the response being measured. A lower IC50 goes with inhibition by little substance.

Consider 24 compounds from patent publication US11420958B2, “Aryl and heteroaryl substituted indole compounds” (BRISTOL-MYERS SQUIBB COMPANY, priority 2017, dated 2022).

Common to all, as to assay type: cell-based
For one assay, the target named is human TLR9 (Homo sapiens (Human), UniProt Q9NR96). As to the kind of experiment: TLR9 inhibition reporter assay (HEK-Blue, SEAP). As to conditions: HEK-Blue cells overexpressing human TLR9, ODN2006 5 nM stimulation. A digest of the protocol: (§1)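 SEAP read-out via detection medium after 22 h at 37 °C, 5% CO2; percent inhibition relative to agonist-plus-DMSO and known-inhibitor wells. Agonists: TLR7 gardiquimod 7.5 μM, TLR8 R848 15.9 μM, TLR9 ODN2006 5 nM (final). Compound range 0.05 nM–50 μM, 30 min pre-treatment.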
A general note: Reporter assays use an easily measured gene product as a stand-in for the process of interest.

Another assay concerns the target human TLR8 (Homo sapiens (Human), UniProt Q9NR97). As to the kind of experiment: TLR8 inhibition reporter assay (HEK-Blue, SEAP). As to conditions: HEK-Blue cells overexpressing human TLR8, R848 15.9 μM stimulation. A digest of the protocol:
as §1

The next assay addresses human TLR7 (Homo sapiens (Human), UniProt Q9NYK1). In words: TLR7 inhibition reporter assay (HEK-Blue, SEAP). As to conditions: HEK-Blue cells overexpressing human TLR7, gardiquimod 7.5 μM stimulation. A digest of the protocol: as §1

Chain of human TLR8 (Q9NR97 27-1041): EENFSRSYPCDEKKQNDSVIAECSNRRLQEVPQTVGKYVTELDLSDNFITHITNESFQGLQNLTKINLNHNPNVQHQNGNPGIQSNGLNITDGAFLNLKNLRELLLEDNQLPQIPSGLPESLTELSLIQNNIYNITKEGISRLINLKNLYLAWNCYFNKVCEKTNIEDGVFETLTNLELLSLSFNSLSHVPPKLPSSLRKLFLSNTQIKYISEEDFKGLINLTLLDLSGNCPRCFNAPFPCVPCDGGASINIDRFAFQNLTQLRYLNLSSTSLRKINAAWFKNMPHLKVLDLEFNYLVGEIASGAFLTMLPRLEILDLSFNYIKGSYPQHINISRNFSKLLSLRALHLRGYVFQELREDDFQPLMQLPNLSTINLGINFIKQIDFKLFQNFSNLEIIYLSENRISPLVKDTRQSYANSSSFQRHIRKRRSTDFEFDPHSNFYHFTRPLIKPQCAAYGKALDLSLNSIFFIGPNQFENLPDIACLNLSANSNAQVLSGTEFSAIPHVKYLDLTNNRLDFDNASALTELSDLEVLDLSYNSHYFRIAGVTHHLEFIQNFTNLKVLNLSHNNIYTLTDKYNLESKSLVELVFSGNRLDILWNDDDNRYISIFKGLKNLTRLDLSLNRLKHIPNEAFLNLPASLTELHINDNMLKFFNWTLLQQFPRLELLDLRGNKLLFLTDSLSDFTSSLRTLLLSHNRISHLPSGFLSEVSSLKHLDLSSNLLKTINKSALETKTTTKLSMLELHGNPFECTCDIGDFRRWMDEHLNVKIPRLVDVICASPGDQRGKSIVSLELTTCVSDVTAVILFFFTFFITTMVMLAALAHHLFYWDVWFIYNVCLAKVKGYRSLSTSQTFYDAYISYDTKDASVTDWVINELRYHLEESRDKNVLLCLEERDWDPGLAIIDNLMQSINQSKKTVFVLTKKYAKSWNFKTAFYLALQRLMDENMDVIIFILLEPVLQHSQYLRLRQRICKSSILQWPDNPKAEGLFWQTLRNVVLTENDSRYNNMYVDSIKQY
Chain of human TLR7 (Q9NYK1 27-1049): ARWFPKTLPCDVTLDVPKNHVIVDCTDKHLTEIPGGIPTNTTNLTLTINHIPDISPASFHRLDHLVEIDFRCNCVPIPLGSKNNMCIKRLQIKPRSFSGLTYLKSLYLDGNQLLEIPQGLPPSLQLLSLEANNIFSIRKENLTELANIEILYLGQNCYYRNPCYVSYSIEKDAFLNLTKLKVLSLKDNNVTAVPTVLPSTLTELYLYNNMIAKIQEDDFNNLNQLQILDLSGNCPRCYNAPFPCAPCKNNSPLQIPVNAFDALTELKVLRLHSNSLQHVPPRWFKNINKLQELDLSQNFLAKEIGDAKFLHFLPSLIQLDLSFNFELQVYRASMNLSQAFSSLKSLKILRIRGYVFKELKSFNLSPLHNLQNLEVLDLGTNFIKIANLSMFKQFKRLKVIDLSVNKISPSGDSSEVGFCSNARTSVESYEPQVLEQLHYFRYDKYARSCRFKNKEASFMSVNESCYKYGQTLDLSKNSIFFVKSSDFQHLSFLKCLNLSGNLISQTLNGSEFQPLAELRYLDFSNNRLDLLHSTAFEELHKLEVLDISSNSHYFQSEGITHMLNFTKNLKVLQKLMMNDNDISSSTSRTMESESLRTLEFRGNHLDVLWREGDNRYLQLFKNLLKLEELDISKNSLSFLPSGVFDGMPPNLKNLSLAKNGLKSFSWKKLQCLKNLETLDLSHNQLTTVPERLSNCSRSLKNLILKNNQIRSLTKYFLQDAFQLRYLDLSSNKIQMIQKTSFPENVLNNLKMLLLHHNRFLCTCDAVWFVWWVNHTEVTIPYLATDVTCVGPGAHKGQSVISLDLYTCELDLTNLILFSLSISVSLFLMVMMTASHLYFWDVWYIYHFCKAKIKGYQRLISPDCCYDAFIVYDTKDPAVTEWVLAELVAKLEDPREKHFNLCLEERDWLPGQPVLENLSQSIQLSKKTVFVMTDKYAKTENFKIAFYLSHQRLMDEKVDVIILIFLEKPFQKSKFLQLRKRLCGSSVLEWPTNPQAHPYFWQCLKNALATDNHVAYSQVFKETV
Chain of human TLR9 (Q9NR96 26-1032): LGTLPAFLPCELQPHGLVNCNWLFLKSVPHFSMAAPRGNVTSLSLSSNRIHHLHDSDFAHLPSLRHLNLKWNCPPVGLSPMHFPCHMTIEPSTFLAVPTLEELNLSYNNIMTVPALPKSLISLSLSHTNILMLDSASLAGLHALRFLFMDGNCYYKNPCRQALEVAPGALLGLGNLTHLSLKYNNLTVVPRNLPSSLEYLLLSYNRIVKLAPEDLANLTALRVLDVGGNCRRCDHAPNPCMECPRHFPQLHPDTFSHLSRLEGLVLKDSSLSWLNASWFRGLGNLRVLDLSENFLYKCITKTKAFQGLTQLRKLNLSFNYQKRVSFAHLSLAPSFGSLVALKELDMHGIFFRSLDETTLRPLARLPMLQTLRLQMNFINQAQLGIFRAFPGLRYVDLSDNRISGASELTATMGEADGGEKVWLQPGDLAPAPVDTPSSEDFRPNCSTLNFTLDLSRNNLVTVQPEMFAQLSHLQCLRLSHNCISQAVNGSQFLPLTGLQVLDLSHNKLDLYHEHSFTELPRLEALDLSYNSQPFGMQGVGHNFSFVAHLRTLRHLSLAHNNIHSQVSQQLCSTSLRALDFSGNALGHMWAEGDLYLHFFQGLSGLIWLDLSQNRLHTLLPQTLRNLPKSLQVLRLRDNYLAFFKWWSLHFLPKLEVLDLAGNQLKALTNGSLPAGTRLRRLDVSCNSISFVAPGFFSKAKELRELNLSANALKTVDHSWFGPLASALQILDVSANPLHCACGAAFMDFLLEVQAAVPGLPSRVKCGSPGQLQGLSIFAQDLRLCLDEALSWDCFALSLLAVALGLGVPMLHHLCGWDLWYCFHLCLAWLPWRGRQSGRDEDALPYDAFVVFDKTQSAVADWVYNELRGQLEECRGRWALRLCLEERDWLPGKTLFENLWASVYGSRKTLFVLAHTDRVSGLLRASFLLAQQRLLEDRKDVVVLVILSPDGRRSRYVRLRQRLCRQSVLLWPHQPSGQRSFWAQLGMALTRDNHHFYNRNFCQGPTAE

`CNCc1nnc(-c2ccc3[nH]c(-c4ccnc5n[nH]cc45)c(C(C)C)c3c2)o1` [Example 132, 1-(5-(3-isopropyl-2-(2H-pyrazolo[3,4-b]pyridin-4-yl)-1H-indol-5-yl)-1,3,4-oxadiazol-2-yl)-N-methylmethanamine]: the IC50 against human TLR9 is 47400 nM; against human TLR8, 44 nM; on human TLR7 it was 2680 nM.
The matching figures for `Cc1cc(-c2[nH]c3ccc(-c4nnc(C(=O)NCCN(C)C)s4)cc3c2C(C)C)ccn1` [Example 133, N-(2-(dimethylamino)ethyl)-5-(3-isopropyl-2-(2-methylpyridin-4-yl)-1H-indol-5-yl)-1,3,4-thiadiazole-2-carboxamide]: 441 nM, 2 nM and 18 nM.
As for `Cc1cc(-c2[nH]c3ccc(-c4nnc(C(=O)NC5CCN(C(C)C)CC5)s4)cc3c2C(C)C)ccn1` [Example 135, 5-(3-isopropyl-2-(2-methylpyridin-4-yl)-1H-indol-5-yl)-N-(1-isopropylpiperidin-4-yl)-1,3,4-thiadiazole-2-carboxamide], the results for the IC50 at human TLR9, against human TLR8 and against human TLR7 were 1380 nM, 7.8 nM and 44 nM, respectively.
For `COc1ccc(-c2[nH]c3ccc(-c4ccc5c(c4)CCNC5)cc3c2C(C)C)cc1OC` [Example 136, 6-(2-(3,4-dimethoxyphenyl)-3-isopropyl-1H-indol-5-yl)-1,2,3,4-tetrahydroisoquinoline], the IC50 on human TLR9 was determined as 6880 nM; against human TLR8, 38 nM; against human TLR7, 57 nM.
`Cc1cc(-c2[nH]c3ccc(-c4nnc(C(=O)NC5CCNC5)s4)cc3c2C(C)C)ccn1` (stereo not drawn) [Example 137, 5-(3-isopropyl-2-(2-methylpyridin-4-yl)-1H-indol-5-yl)-N-(pyrrolidin-3-yl)-1,3,4-thiadiazole-2-carboxamide]: the IC50 was found to be 705 nM against human TLR9, 2.7 nM against human TLR8 and 29 nM against human TLR7.
`Cc1cc(-c2[nH]c3ccc(-c4nnc(CC5CCCCN5)o4)cc3c2C(C)C)ccn1` (stereo not drawn) [Example 138, 2-(3-isopropyl-2-(2-methylpyridin-4-yl)-1H-indol-5-yl)-5-(piperidin-2-ylmethyl)-1,3,4-oxadiazole]: the results for the IC50 against human TLR9, on human TLR8 and against human TLR7 were 542 nM, 1.4 nM and 26 nM, respectively.
Turning to `Cc1cc(-c2[nH]c3ccc(-c4nnc([C@@H]5CCNC5)o4)cc3c2C(C)C)ccn1` [Example 139, (R)-2-(3-isopropyl-2-(2-methylpyridin-4-yl)-1H-indol-5-yl)-5-(pyrrolidin-3-yl)-1,3,4-oxadiazole], the IC50 stood at 523 nM against human TLR9, 2.8 nM against human TLR8 and 28 nM at human TLR7.
Regarding `Cc1cc(-c2[nH]c3ccc(-c4nnc(CN5CCNCC5)o4)cc3c2C(C)C)ccn1` [Example 140, 2-(3-isopropyl-2-(2-methylpyridin-4-yl)-1H-indol-5-yl)-5-(piperazin-1-ylmethyl)-1,3,4-oxadiazole], the IC50 at human TLR9 is 468 nM; against human TLR8, 5.2 nM; on human TLR7 it was 67 nM.
Turning to `Cc1cc(-c2[nH]c3ccc(-c4nnc(Cn5ccnc5)o4)cc3c2C(C)C)ccn1` [Example 141, 2-((1H-imidazol-1-yl)methyl)-5-(3-isopropyl-2-(2-methylpyridin-4-yl)-1H-indol-5-yl)-1,3,4-oxadiazole], the values for the IC50 against human TLR9, against human TLR8 and against human TLR7 were more than 50000 nM, 27 nM and 192 nM, respectively.
As for `CNCCc1nnc(-c2ccc3[nH]c(-c4ccnc(C)c4)c(C(C)C)c3c2)o1` [Example 142, 2-(5-(3-isopropyl-2-(2-methylpyridin-4-yl)-1H-indol-5-yl)-1,3,4-oxadiazol-2-yl)-N-methylethan-1-amine], the results for the IC50 against human TLR9, against human TLR8 and at human TLR7 were 621 nM, 1.7 nM and 25 nM, respectively.
The matching figures for `Cc1cc(-c2[nH]c3ccc(-c4nnc(CCN(C)C)o4)cc3c2C(C)C)ccn1` [Example 143, 2-(5-(3-isopropyl-2-(2-methylpyridin-4-yl)-1H-indol-5-yl)-1,3,4-oxadiazol-2-yl)-N,N-dimethylethan-1-amine]: 1680 nM, 0.8 nM and 47 nM.
In the case of `Cc1cc(-c2[nH]c3ccc(-c4nnc(Cc5c[nH]cn5)o4)cc3c2C(C)C)ccn1` [Example 144, 2-((1H-imidazol-4-yl)methyl)-5-(3-isopropyl-2-(2-methylpyridin-4-yl)-1H-indol-5-yl)-1,3,4-oxadiazole], the results for the IC50 against human TLR9, against human TLR8 and at human TLR7 were more than 50000 nM, 17 nM and 258 nM, respectively.
On to `Cc1cc(-c2[nH]c3ccc(-c4nnc(C[C@H]5CCCN5)o4)cc3c2C(C)C)ccn1` [Example 145, (R)-2-(3-isopropyl-2-(2-methylpyridin-4-yl)-1H-indol-5-yl)-5-(pyrrolidin-2-ylmethyl)-1,3,4-oxadiazole], for which the values for the IC50 against human TLR9, against human TLR8 and at human TLR7 were 633 nM, 1 nM and 34 nM, respectively.
In the case of `Cc1cc(-c2[nH]c3ccc(-c4nnc([C@H]5CCNC5)o4)cc3c2C(C)C)ccn1` [Example 146, (S)-2-(3-isopropyl-2-(2-methylpyridin-4-yl)-1H-indol-5-yl)-5-(pyrrolidin-3-yl)-1,3,4-oxadiazole], the IC50 amounted to 651 nM at human TLR9, 3 nM at human TLR8 and 15 nM against human TLR7.
In the same order, the values of `COc1ccc(-c2[nH]c3ccc(-c4nc(C(=O)NC5CCN(C(C)C)CC5)cs4)cc3c2C(C)C)cc1OC` [Example 147, 2-(2-(3,4-dimethoxyphenyl)-3-isopropyl-1H-indol-5-yl)-N-(1-isopropylpiperidin-4-yl)thiazole-4-carboxamide] are 2250 nM, 20 nM and 192 nM.
With `CC(C)c1c(-c2ccnc3[nH]ncc23)[nH]c2ccc(-c3nnc(CNC4CC4)o3)cc12` [Example 148, N-((5-(3-isopropyl-2-(1H-pyrazolo[3,4-b]pyridin-4-yl)-1H-indol-5-yl)-1,3,4-oxadiazol-2-yl)methyl)cyclopropanamine], the IC50 was more than 50000 nM against human TLR9, 37 nM against human TLR8 and 945 nM at human TLR7.
As to `CC(C)c1c(-c2ccnc3[nH]ncc23)[nH]c2ccc(-c3nnc(CNCC(C)(C)C)o3)cc12` [Example 149, N-((5-(3-isopropyl-2-(1H-pyrazolo[3,4-b]pyridin-4-yl)-1H-indol-5-yl)-1,3,4-oxadiazol-2-yl)methyl)-2,2-dimethylpropan-1-amine], the IC50 against human TLR9 was more than 50000 nM; on human TLR8, 50 nM; against human TLR7 it was 7280 nM.
Turning to `CC(C)c1c(-c2ccnc3[nH]ncc23)[nH]c2ccc(-c3nnc(CNCC#N)o3)cc12` [Example 150, 2-(((5-(3-isopropyl-2-(1H-pyrazolo[3,4-b]pyridin-4-yl)-1H-indol-5-yl)-1,3,4-oxadiazol-2-yl)methyl)amino)acetonitrile], the IC50 is more than 50000 nM against human TLR9, 378 nM against human TLR8 and 2240 nM on human TLR7.
As for `CC(C)c1c(-c2ccnc3[nH]ncc23)[nH]c2ccc(-c3nnc(CNC45CC6CC(CC(C6)C4)C5)o3)cc12` [Example 151, N-((5-(3-isopropyl-2-(1H-pyrazolo[3,4-b]pyridin-4-yl)-1H-indol-5-yl)-1,3,4-oxadiazol-2-yl)methyl)adamantan-1-amine], the figures for the IC50 against human TLR9, against human TLR8 and at human TLR7 were more than 50000 nM, 18 nM and 5340 nM, respectively.
For `CC(C)c1c(-c2ccnc3[nH]ncc23)[nH]c2ccc(-c3nnc(CN4CCOCC4)o3)cc12` [Example 152, 4-((5-(3-isopropyl-2-(1H-pyrazolo[3,4-b]pyridin-4-yl)-1H-indol-5-yl)-1,3,4-oxadiazol-2-yl)methyl)morpholine], the IC50 at human TLR9 was more than 50000 nM; against human TLR8, 471 nM; at human TLR7, 2330 nM.
For `CC(=O)N1CCN(Cc2nnc(-c3ccc4[nH]c(-c5ccnc6[nH]ncc56)c(C(C)C)c4c3)o2)CC1` [Example 153, 1-(4-((5-(3-isopropyl-2-(1H-pyrazolo[3,4-b]pyridin-4-yl)-1H-indol-5-yl)-1,3,4-oxadiazol-2-yl)methyl)piperazin-1-yl)ethan-1-one], the IC50 against human TLR9 is more than 50000 nM; against human TLR8 it was 138 nM; against human TLR7 it was 1570 nM.
Consider `CC(C)c1c(-c2ccnc3[nH]ncc23)[nH]c2ccc(-c3nnc(CN(C)C(C)C)o3)cc12` [Example 154, N-((5-(3-isopropyl-2-(1H-pyrazolo[3,4-b]pyridin-4-yl)-1H-indol-5-yl)-1,3,4-oxadiazol-2-yl)methyl)-N-methylpropan-2-amine], for which the IC50 on human TLR9 was more than 50000 nM; on human TLR8, 31 nM; at human TLR7 it was 1410 nM.
`CC(=O)N1CCCN(Cc2nnc(-c3ccc4[nH]c(-c5ccnc6[nH]ncc56)c(C(C)C)c4c3)o2)CC1` [Example 155, 1-(4-((5-(3-isopropyl-2-(1H-pyrazolo[3,4-b]pyridin-4-yl)-1H-indol-5-yl)-1,3,4-oxadiazol-2-yl)methyl)-1,4-diazepan-1-yl)ethan-1-one]: the IC50 was more than 50000 nM at human TLR9, 127 nM on human TLR8 and 1420 nM at human TLR7.
On to `CC(C)c1c(-c2ccnc3[nH]ncc23)[nH]c2ccc(-c3nnc(CN4CCNC(=O)C4)o3)cc12` [Example 156, 4-((5-(3-isopropyl-2-(1H-pyrazolo[3,4-b]pyridin-4-yl)-1H-indol-5-yl)-1,3,4-oxadiazol-2-yl)methyl)piperazin-2-one], for which the IC50 on human TLR9 was more than 50000 nM; at human TLR8 it was 212 nM; at human TLR7, 1410 nM.
